The subject of experiment [1] is A. succinogenes 130Z. The experiment is described as follows: Antibiotic minimum inhibitory concentrations: growth of A. succinogenes 130Z in liquid medium A with antibiotics. The note with it: 37° C.; for OD660 after 7 days culture: 5 μg/ml antibiotic; for antibiotic concentration in whose presence no growth was detected / antibiotic concentration in whose presence very slow growth was observed / antibiotic concentration in whose presence A. succinogenes 130Z grew perfectly well: 7 days, OD660. The format is cell-based, Actinobacillus succinogenes. On the procedure: Antibiotic minimum inhibitory concentrations. To determine the sensitivity of A. succinogenes 130Z to antibiotics, the growth of A. succinogenes 130Z was tested in medium A (liquid medium) containing a series of antibiotics commonly used in bacteriology. One ml of 130Z preculture was inoculated into 9 ml of medium A containing each antibiotic and incubated at 37° C. for 7 days. Cell growth was followed by measuring OD660.
Resistance of A. succinogenes to antibiotics. A. succinogenes 130Z grew perfectly well in the presence of 50 μg/ml kanamycin or 30 μg/ml streptomycin. […] No growth was detected in the presence of 10 μg/ml ampicillin, 1 μg/ml chloramphenicol, 5 μg/ml tetracycline, or 10 μg/ml erythromycin. A. succinogenes is sensitive to low concentrations of ampicillin, chloramphenicol, erythromycin, and tetracycline, so the corresponding resistance genes (i.e., Amp^R, Cm^R, Tet^R, and Ery^R) could be used as selection markers on plasmids used to transform A. succinogenes. We discovered that the Tn3 Amp^R gene carried by pGZRS-19 is naturally expressed in A. succinogenes.

The subject of experiment [2] is A. succinogenes 130Z cells harboring pLGZ921 and pLGZ922. The experiment is described as follows: Growth of plasmid-harboring A. succinogenes 130Z on TS-agar plates with tetracycline or chloramphenicol. The format is cell-based, Actinobacillus succinogenes. From the text:
Expression of Tet^R and Cm^R in A. succinogenes. We need several markers to conveniently engineer A. succinogenes. One can be used to label a gene deletion, while another one can be used to select for the maintenance of a recombinant gene on a plasmid replicon. To determine whether, once expressed, Cm^R and Tet^R could be used as selective markers in A. succinogenes, the Tn9 Cm^R and Tn10 Tet^R genes were cloned into pLGZ920 under control of the A. succinogenes pckA promoter, yielding plasmids pLGZ921 and pLGZ922, respectively. After electroporation, A. succinogenes 130Z cells harboring pLGZ921 and pLGZ922 were spread on TS-agar (30 g/l TS, 10 g/l glucose) plates containing variable amounts of tetracycline and chloramphenicol (FIG. 9). Strains […] plated on chloramphenicol plates and […] plated on tetracycline plates were used as the negative controls. […] In contrast, strain […] grew on plates containing up to 5.0 μg/ml tetracycline. Chloramphenicol-sensitive 130Z(pLGZ921) strain grew on plates containing up to 0.4 μg/ml […], but not on plates containing higher chloramphenicol concentrations. Strain […] grew on plates containing up to 5.0 μg/ml chloramphenicol.

This note sets out measurements from US7195918B2 (priority 2003, dated 2007).

As to `CC1(C)S[C@@H]2[C@H](NC(=O)[C@H](N)c3ccccc3)C(=O)N2[C@H]1C(=O)O` [ampicillin], in experiment [1], the “OD660 after 7 days culture” value is reported as “approximately 0.05”, the “antibiotic concentration in whose presence no growth was detected” value was determined as 10 µg/mL and the “antibiotic concentration in whose presence very slow growth was observed” value came to 5 µg/mL.

In the case of `CC[C@H]1OC(=O)[C@H](C)[C@@H](O[C@H]2C[C@@](C)(OC)[C@@H](O)[C@H](C)O2)[C@H](C)[C@@H](O[C@@H]2O[C@H](C)C[C@H](N(C)C)[C@H]2O)[C@](C)(O)C[C@@H](C)C(=O)[C@H](C)[C@@H](O)[C@]1(C)O` [erythromycin], in experiment [1], the “OD660 after 7 days culture” value is listed as “approximately 0.05”, the “antibiotic concentration in whose presence no growth was detected” value was determined as 10 µg/mL and the “antibiotic concentration in whose presence very slow growth was observed” value was found to be 5 µg/mL. Turning to `[H]/N=C(/N)N[C@H]1[C@H](O)[C@@H](O)[C@H](O[C@@H]2O[C@@H](C)[C@](O)(C=O)[C@H]2O[C@@H]2O[C@@H](CO)[C@H](O)[C@@H](O)[C@@H]2NC)[C@@H](N/C(N)=N\[H])[C@@H]1O` [streptomycin], the “antibiotic concentration in whose presence A. succinogenes 130Z grew perfectly well” value in experiment [1] was 30 µg/mL.

On to `NC[C@H]1O[C@H](O[C@H]2[C@H](O)[C@@H](O[C@H]3O[C@H](CO)[C@@H](O)[C@H](N)[C@H]3O)[C@H](N)C[C@@H]2N)[C@H](O)[C@@H](O)[C@@H]1O` [kanamycin], for which the “antibiotic concentration in whose presence A. succinogenes 130Z grew perfectly well” value in experiment [1] came out at 50 µg/mL.

With `O=C(N[C@H](CO)[C@H](O)c1ccc([N+](=O)[O-])cc1)C(Cl)Cl` [chloramphenicol], the “antibiotic concentration in whose presence no growth was detected” value in experiment [1] stood at 1 µg/mL. For the compound `CN(C)[C@@H]1C(O)=C(C(N)=O)C(=O)[C@@]2(O)C(O)=C3C(=O)c4c(O)cccc4[C@@](C)(O)[C@H]3C[C@@H]12` [tetracycline], the “antibiotic concentration in whose presence no growth was detected” value in experiment [1] came to 5 µg/mL. The “antibiotic concentration up to which strain 130Z(pLGZ922) grew on plates” value in experiment [2] is on record as “up to 1.0 μg/ml”.
